ChEMBL document CHEMBL3507680, “University of Dundee, Gates Library screen for HepG2 cell viability”

Assay: Human HepG2 cell viability assay in 384 well format
Assay type: toxicity, cell-based
Design: dose 125 nL, time 70.5 hour; concentration not given beside the values
Conditions: HepG2 cells, read-out: Inhibition

Row | SMILES | cytotoxicity at 70.5 h [%]
1 | COCCc1ncc(CNC2(c3ccc(Cl)cc3Cl)CC2)cn1 | -1.55
2 | Cn1ccnc1CN1CCC2(CC1)CCN(c1ccccc1)C2=O | 27.2
3 | O=C(c1ccoc1)N1CCC2(C1)CN(c1ncccn1)C2 | 0.524
4 | COc1ccc(N2CCN(C[C@@H](C)CO)CC2=O)cc1 | -4.04
5 | CC(C)(C)c1nc(CN2CCCC2Cn2cccn2)no1 (stereo unspecified) | 12.2
6 | c1cnc(N2CCC3(CCN(Cc4ccncc4)CC3)CC2)nc1 | -15.7
7 | CN(CC1CCOCC1)C(=O)NCCCN1CCCCC1 | -3.15
8 | CCc1ccsc1C(=O)N1CCCN(Cc2cscn2)CC1 | 3.8
9 | Cc1cc(C)n(CC(=O)NCc2ccccn2)n1 | -10.7
10 | C[S+](C)[c-]1c(=O)[nH]c(=O)n(CCc2ccc(F)cc2)c1=O | -2.07
11 | COc1ccccc1C(=O)Nc1c(F)c(C(=O)NCCC(C)C)nn1C | 25.3
12 | COCCC1(C(=O)O)CCCN(C(=O)c2cc(Cl)ccc2F)C1 (stereo unspecified) | -5.3
13 | Cc1ccc(C(=O)N2CCN(c3ncnc4nc(N)ccc34)CC2)o1 | -7.65
14 | Cc1cnn(CC2CCCN2C(=O)c2cnc(-c3ccco3)s2)c1 (stereo unspecified) | -9.06
15 | CS(=O)(=O)N1CC2(CCN(CC3CCCCC3)CC2)Cc2ccccc21 | 29.9
16 | COc1ccc(CCN2CC(NCc3ncc[nH]3)CC2=O)cc1 (stereo unspecified) | -7.01
17 | Cc1noc(C)c1NC(=O)CCn1cc(Br)ccc1=O | -8.23
18 | OCC1CCN(c2ccc(NCc3ccsc3)nc2)CC1 | -5.76
19 | O=C(CC1Cn2ncnc2NC1=O)Nc1ccccc1 (stereo unspecified) | -8.16
20 | Cc1ccc(-n2cccn2)cc1S(=O)(=O)N1C[C@@H]2CC[C@H](C1)N(C)C2 | -1.91
21 | Cc1cc(N2CCN(Cc3ccc(C)o3)CC2)cc(C)n1 | -9.4
22 | Cc1sc2nc(CCN)nc(N3CCN(S(C)(=O)=O)CC3)c2c1C | -8.4
23 | COc1ccc(C)cc1CCNS(C)(=O)=O | -10.4
24 | Cc1cc(F)ccc1CN1CCCC(O)(CN2CCCC2)C1 (stereo unspecified) | -1.52

Row | SMILES | cytotoxicity at 70.5 h [%]
25 | CN(C)CCCC(=O)NC1CC(C)(C)Cc2nc(C(C)(C)C)ncc21 (stereo unspecified) | -17.7
26 | CC(C)c1nccn1-c1nccnc1C1CCCN1Cc1cccnc1 (stereo unspecified) | -1.81
27 | Cc1nc(CN(C)Cc2cc3c(cc2OC(F)F)OCO3)cs1 | -7.91
28 | CCOCCCNC(=O)c1cn(C(C)(C)C)c2ncccc12 | 20.9
29 | CCc1nc(CN2CCCN(c3nc4ccccc4o3)CC2)no1 | 6.35
30 | CCOc1ccccc1CN(C)C(C)c1nc(-c2cccnc2)no1 (stereo unspecified) | -3.75
31 | COc1ccc(COCC(=O)N2CCCC(n3cncn3)C2)cc1 (stereo unspecified) | 19.2
32 | CN1CC(=O)N(c2cnn(C)c2)CC12CCN(Cc1nccn1C)C2 (stereo unspecified) | -4.58
33 | c1cnc(-c2nc(CN3CCN(CC4CC4)CC3)cs2)nc1 | -5.7
34 | COc1ccccc1-c1ccc(C2CCCN(C(C)=O)C2)nc1 (stereo unspecified) | -0.199
35 | CCCc1nc(CN2CCOC(CNc3cccnn3)C2)cs1 (stereo unspecified) | -11.7
36 | CCn1ncnc1CN(C/C=C/c1ccccc1)CCOC | -1.42
37 | CNS(=O)(=O)c1ccc(CCC(=O)NCc2cccc(OC)c2)cc1 | -0.152
38 | CN(C)S(=O)(=O)c1ccc(-c2nc(C#N)c(NC3CC3)o2)o1 | -4.74
39 | COc1ccccc1CNC(C)c1ccc(-n2ccnc2)cc1 (stereo unspecified) | 32.7
40 | O=C(c1ccccc1)N1CCC[C@]2(C[C@@H](OCc3ccccn3)CO2)C1 | -13.1
41 | COc1ccc(-c2n[nH]c(C)c2CC(=O)NCCN2CCOCC2)cc1 | -2.78
42 | CSCCC(=O)N1CCCN(Cc2cnn(C(C)C)c2)CC1 | 34.5
43 | CC(=O)N1CCN(Cc2ccco2)CC2(CC(=O)N(C)C2)C1 (stereo unspecified) | 20.7
44 | CS(=O)(=O)c1cccc(S(=O)(=O)NC(=O)c2cscn2)c1 | -4.27
45 | c1csc(-c2noc(CCCNC3CCc4ncnn4C3)n2)c1 (stereo unspecified) | -4.28
46 | COCCNc1ccc(CC2CCNC2)cn1 (stereo unspecified) | -5.62
47 | CCn1cncc1CN(Cc1ccc(OC)cc1OC)CC1CCCO1 (stereo unspecified) | -3.49
48 | CC(C)c1ncc2c(n1)CN(Cc1ccc3c(c1)OCCO3)CC2 | 12.6

Row | SMILES | cytotoxicity at 70.5 h [%]
49 | COc1cccc(C2CC(=O)Nc3c2cnn3C(C)(C)C)c1 (stereo unspecified) | -6.1
50 | CC(=O)N[C@@H]1CN(C(=O)Cc2coc3cc(C)ccc23)C[C@H]1O | -2.72
51 | Cn1cc(N2CC3(CCN(Cc4cccs4)CC3)OCC2=O)cn1 | -4.87
52 | Cc1ncsc1C(=O)NC1CCN(Cc2ccc(C#N)cc2)CC1 | -14.1
53 | c1cc(CNCCC2CCCO2)ccn1 (stereo unspecified) | 5.59
54 | CC(C)C(NC(=O)c1ccc(Cl)cc1Cl)C(=O)Nc1ccn(C)n1 (stereo unspecified) | 1.6
55 | COc1ncc(C(=O)NCc2ccc(Br)cc2)cn1 | -2.74
56 | Cc1ccsc1CN1CCC(n2cc(C(O)c3ccccc3)nn2)CC1 (stereo unspecified) | -8.81
57 | CC(=O)N1CCC(CCc2ccnc(Nc3ccccn3)c2)CC1 | 26.8
58 | CO[C@H]1CN(C(=O)OC(C)(C)C)CC1NCc1ccco1 (stereo partly specified) | -24.9
59 | Cc1cnc(CN(C)C2CCN(CCc3cnn(C)c3)C2)o1 (stereo unspecified) | -0.678
60 | CCn1ccnc1CN(C)C1CCCN(CCc2ccccc2)C1 (stereo unspecified) | 1.27
61 | CC(C)c1cc(C(=O)NCCCN(C)C)nc(N2CCCC2)n1 | -8.44
62 | c1csc(CN2CCCN(c3ncnc4[nH]ccc34)CC2)c1 | -13.6
63 | CC(C)COC(C)C(=O)N1CCN(S(C)(=O)=O)CC1 (stereo unspecified) | -0.767
64 | CCNc1ccnc(NCC2CNCCO2)n1 (stereo unspecified) | -3.23
65 | CC(C)c1cc(NCC2(CO)CCCC2)ncn1 | -10.6
66 | CCc1cc(N(C)Cc2ccnc(C)c2)n2nc(C)c(C)c2n1 | 40.9
67 | COCCNc1cccc(C2CCCN2)n1 (stereo unspecified) | -6.3
68 | COc1ccc(CCNc2cc(-c3nc(C)no3)ccn2)cc1OC | -3.44
69 | CC(C)CN1CCCC1c1ccc(C(=O)Nc2ccc3[nH]nnc3c2)s1 (stereo unspecified) | -0.75
70 | CCC(C)N(Cc1c[nH]c(C)n1)Cc1ccccc1Cl (stereo unspecified) | -8.23
71 | CC(=O)N1CCC(c2nc3ccc(-c4ccnn4C)cn3n2)CC1 | -12.4
72 | Cc1ccccc1CNC(=O)N1C[C@H]2C[C@H](C(=O)N(C)C)[C@@H](C1)O2 | -5.69

Row | SMILES | cytotoxicity at 70.5 h [%]
73 | c1cncc(CN2CCC(c3ccnc4nccn34)C2)c1 (stereo unspecified) | -1.1
74 | c1cncc(-c2nnc(C3(c4ccc5c(c4)OCO5)CCOCC3)o2)c1 | -15.4
75 | COCCCN(Cc1cnc(C2CCCCC2)nc1)C1CCN(C)CC1 | -16.3
76 | CC(C)c1noc(Cn2ncc3ccccc3c2=O)n1 | -7.17
77 | O=C(C[C@H]1[C@H]2CN(C(=O)Cc3ccccn3)C[C@@H]12)Nc1cccnc1 | -1.03
78 | CNC(=O)c1nc(CN2CCOC(CCCC(C)C)C2)no1 (stereo unspecified) | -16.2
79 | CC(C)c1nc(CNc2ccc(N3CCC(CO)CC3)cn2)cs1 | 1.5
80 | Cc1nc(O)cc(C2CCCN(C(=O)c3cccc(N(C)C)c3)C2)n1 (stereo unspecified) | 5.24
81 | COc1ccccc1CN(C)Cc1ccnc(C2CCCO2)n1 (stereo unspecified) | -2.34
82 | CCOc1cncc(N2CCOCC2)n1 | -7.42
83 | CCNC(=O)c1nc2c(s1)CCCN2S(C)(=O)=O | 28.7
84 | OCCN1CCCC(c2nccnc2Oc2ccccc2)C1 (stereo unspecified) | -6.87
85 | Cc1nc(Cn2c3c(ccc2=O)CC(NC(C)C)CC3)cs1 (stereo unspecified) | -9.3
86 | CCOC(=O)C1CCN(C(=O)CN2CCCC2c2ccccc2C)CC1 (stereo unspecified) | -10.7
87 | CCn1nc(C)c2nc(C(C)C)nc(N(C)Cc3ccco3)c21 | -17
88 | CC(C)NC(=O)N1CCOC2(CCCN(c3cccc(C#N)c3)C2)C1 (stereo unspecified) | -10.4
89 | Nc1nccnc1C1CN(C(=O)COc2cccnc2)CCO1 (stereo unspecified) | 6.29
90 | CC(=O)N1CCCC1(C(=O)N1CCCC1)c1cnccn1 (stereo unspecified) | 0.591
91 | COc1ccc(CNCCc2ccn(-c3ccccc3)n2)cc1O | -8.7
92 | CC(C)(C)c1ncc(CNCC2CCCN2c2cccnn2)s1 (stereo unspecified) | 5.55
93 | Cc1ccc(-c2noc(CN3CCn4c(nnc4C4CC4)C3)n2)cc1 | -16
94 | CCCn1cnnc1CNC(=O)C1COc2cc(OC)ccc2C1 (stereo unspecified) | 18.3
95 | CCc1nnc(C2Cc3ccccc3CN2Cc2nc(C)no2)o1 (stereo unspecified) | -3.78
96 | CCNc1ccnc(NC2CCN(C(=O)c3ccc(C)cc3)CC2)n1 | -13.3

Row | SMILES | cytotoxicity at 70.5 h [%]
97 | O=C(NC1CC1)c1cn(C2CCN(c3cc(C4CC4)ncn3)CC2)nn1 | 30
98 | CN(CC1(O)CCN(c2ccnc3ccncc23)CC1)C(=O)CCN | -6.66
99 | Cc1cccnc1CC(C)Nc1nc(N)nc2c1CCNC2 (stereo unspecified) | 2.93
100 | Cc1ccc(C2CN(CCS(=O)(=O)C(C)C)CCO2)c(C)c1 (stereo unspecified) | -1.77
101 | CCc1ccc(N2CCC(NS(=O)(=O)N(CC)CC)CC2)cc1 | -5.14
102 | CC(c1cccnc1)N(C)Cc1csc(-c2ccccn2)n1 (stereo unspecified) | 8.67
103 | CCC(=O)N1CCCCC1c1nc(N(C)C)ncc1-c1cc(C)no1 (stereo unspecified) | 1.06
104 | O=C(NCCn1nc2ccccn2c1=O)c1scnc1Cl | -2.79
105 | CCOCC1CN(Cc2cc(C)on2)Cc2cn(C)nc21 (stereo unspecified) | 4.78
106 | CCCN1CCN(c2nc(N)nc3c2nc(C)n3C)CC1 | 20.9
107 | O=C(c1ccc(CN2CCCCC2)cc1)N1CCCC1c1cccs1 (stereo unspecified) | -0.233
108 | Cc1n[nH]c(CN2CCN(CC3CC3)[C@@H]3CS(=O)(=O)C[C@@H]32)n1 | 44.8
109 | CO[C@H]1CN(S(=O)(=O)c2ccc(F)cc2)C[C@@]12CCCO2 | 36.6
110 | O=C(Nc1nncs1)N1CCC(CCO)CC1 | -7.1
111 | CC(=O)NCCc1ccc(C(=O)N2CCCC2c2cnn(C)c2)cc1 (stereo unspecified) | 15.1
112 | CC(C)OCCCN(CC(=O)N1CCNCC1)C(=O)c1ccc(F)cc1 | 19.8
113 | COc1c(CNCc2ccccc2Cn2cccn2)c(C)nn1C | -5.48
114 | COc1cccc(CN2CCOC(Cn3nc(C)cc3C)C2)c1 (stereo unspecified) | -6.54
115 | CCOC(=O)NC(CNC(=O)c1ccccn1)CC(C)C (stereo unspecified) | -4.75
116 | CC(NC(=O)c1cc2n(n1)CCCN(C(C)C)C2)c1cn2ccsc2n1 (stereo unspecified) | -16.5
